Measured values published in patent US11370798B2 (Vertex Pharmaceuticals Incorporated, priority 2012, dated 2022).

System: HCT116 colorectal cancer cells
Assay: Cisplatin sensitization assay (96 h cell viability MTS);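 further: Test-compound concentration that lowers the Cisplatin IC50 by a set fold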
Type: cell-based
Details: compound and Cisplatin added simultaneously, Cisplatin sensitization value
In short: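 Compound and cisplatin added together as a full matrix of 2-fold serial dilutions from a top final concentration of 10 μM; cells incubated 96 h at 37° C, 5% CO2. Viability then read by MTS after 1 h further incubation; sensitization value reported in μM bins.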

Compound	Cisplatin Sensitization Assay
Nc1nn2cc(F)cnc2c1C(=O)Nc1cncc(F)c1N1CCN2C(=O)CC[C@@H]2C1 [I-N-186, (R)-2-amino-6-fluoro-N-(5-fluoro-4-(6-oxohexahydropyrrolo[1,2-a]pyrazin-2(1H)-yl)pyridin-3-yl)pyrazolo[1,5-a]pyrimidine-3-carboxamide]	+++ (Cisplatin sensitization value of <0.02 μM)
Nc1nn2cc(F)cnc2c1C(=O)Nc1cncc(F)c1N1CCN(C(=O)CN2CCCC2)CC1 [I-N-187, 2-amino-6-fluoro-N-(5-fluoro-4-(4-(2-(pyrrolidin-1-yl)acetyl)piperazin-1-yl)pyridin-3-yl)pyrazolo[1,5-a]pyrimidine-3-carboxamide]	+++ (Cisplatin sensitization value of <0.02 μM)
CN1CCC(S(=O)(=O)N2CCN(c3ccncc3NC(=O)c3c(N)nn4cc(F)cnc34)CC2)CC1 [I-N-188, 2-amino-6-fluoro-N-(4-(4-((1-methylpiperidin-4-yl)sulfonyl)piperazin-1-yl)pyridin-3-yl)pyrazolo[1,5-a]pyrimidine-3-carboxamide]	+++ (Cisplatin sensitization value of <0.02 μM)
Nc1nn2cc(F)cnc2c1C(=O)Nc1cncc(F)c1N1CCC(N2CCOCC2)CC1 [I-N-189, 2-amino-6-fluoro-N-(5-fluoro-4-(4-morpholinopiperidin-1-yl)pyridin-3-yl)pyrazolo[1,5-a]pyrimidine-3-carboxamide]	+++ (Cisplatin sensitization value of <0.02 μM)
CS(=O)(=O)C1CCN(c2ccncc2NC(=O)c2c(N)nn3cc(F)cnc23)CC1 [I-N-190, 2-amino-6-fluoro-N-(4-(4-(methylsulfonyl)piperidin-1-yl)pyridin-3-yl)pyrazolo[1,5-a]pyrimidine-3-carboxamide]	+++ (Cisplatin sensitization value of <0.02 μM)
CN1CCN(C(=O)C2CCN(c3c(F)cncc3NC(=O)c3c(N)nn4cc(F)cnc34)C2)CC1 (stereo not shown) [I-N-191, 2-amino-6-fluoro-N-(5-fluoro-4-(3-(4-methylpiperazine-1-carbonyl)pyrrolidin-1-yl)pyridin-3-yl)pyrazolo[1,5-a]pyrimidine-3-carboxamide]	+ (Cisplatin sensitization value>0.2 μM but <5 μM)
CN1CCN(CC2CCN(c3c(F)cncc3NC(=O)c3c(N)nn4cc(C5(C#N)CC5)cnc34)CC2)CC1 [I-N-192, 2-amino-6-(1-cyanocyclopropyl)-N-(5-fluoro-4-(4-((4-methylpiperazin-1-yl)methyl)piperidin-1-yl)pyridin-3-yl)pyrazolo[1,5-a]pyrimidine-3-carboxamide]	+++ (Cisplatin sensitization value of <0.02 μM)
CN1CCN(CC2CCN(c3c(F)cncc3NC(=O)c3c(N)nn4cc(F)cnc34)CC2)C(=O)C1 [I-N-193, 2-amino-6-fluoro-N-(5-fluoro-4-(4-((4-methyl-2-oxopiperazin-1-yl)methyl)piperidin-1-yl)pyridin-3-yl)pyrazolo[1,5-a]pyrimidine-3-carboxamide]	+++ (Cisplatin sensitization value of <0.02 μM)
CN1CC(C(=O)N2CCN(c3c(F)cncc3NC(=O)c3c(N)nn4cc(F)cnc34)CC2)C1 [I-N-194]	+++ (Cisplatin sensitization value of <0.02 μM)
Nc1nn2cc(F)cnc2c1C(=O)Nc1cnccc1N1CCN(S(=O)(=O)C2COC2)CC1 [I-N-195, 2-amino-6-fluoro-N-(4-(4-(oxetan-3-ylsulfonyl)piperazin-1-yl)pyridin-3-yl)pyrazolo[1,5-a]pyrimidine-3-carboxamide]	+++ (Cisplatin sensitization value of <0.02 μM)
Nc1nn2cc(F)cnc2c1C(=O)Nc1cnccc1N1CCC(S(=O)(=O)N2CCN3CCC2CC3)CC1 [I-N-196, N-(4-(4-(1,4-diazabicyclo[3.2.2]nonan-4-ylsulfonyl)piperidin-1-yl)pyridin-3-yl)-2-amino-6-fluoropyrazolo[1,5-a]pyrimidine-3-carboxamide]	+++ (Cisplatin sensitization value of <0.02 μM)
Nc1nn2cc(F)cnc2c1C(=O)Nc1cnccc1N1CCC(CN2CCC(F)(F)C2)CC1 [I-N-197, 2-amino-N-(4-(4-((3,3-difluoropyrrolidin-1-yl)methyl)piperidin-1-yl)pyridin-3-yl)-6-fluoropyrazolo[1,5-a]pyrimidine-3-carboxamide]	+++ (Cisplatin sensitization value of <0.02 μM)
CN1CCC[C@H]1C(=O)N1CCN(c2ccncc2NC(=O)c2c(N)nn3cc(F)cnc23)CC1 [I-N-198, (S)-2-amino-6-fluoro-N-(4-(4-(1-methylpyrrolidine-2-carbonyl)piperazin-1-yl)pyridin-3-yl)pyrazolo[1,5-a]pyrimidine-3-carboxamide]	++ (Cisplatin sensitization value>0.02 μM but <0.2 μM)
CN1CCC[C@@H]1C(=O)N1CCN(c2ccncc2NC(=O)c2c(N)nn3cc(F)cnc23)CC1 [I-N-199, (R)-2-amino-6-fluoro-N-(4-(4-(1-methylpyrrolidine-2-carbonyl)piperazin-1-yl)pyridin-3-yl)pyrazolo[1,5-a]pyrimidine-3-carboxamide]	+++ (Cisplatin sensitization value of <0.02 μM)
Nc1nn2cc(F)cnc2c1C(=O)Nc1cnccc1N1CCC(S(=O)(=O)C2COC2)CC1 [I-N-200, 2-amino-6-fluoro-N-(4-(4-(oxetan-3-ylsulfonyl)piperidin-1-yl)pyridin-3-yl)pyrazolo[1,5-a]pyrimidine-3-carboxamide]	+++ (Cisplatin sensitization value of <0.02 μM)
Nc1nn2cc(F)cnc2c1C(=O)Nc1cncc(F)c1N1CCN(S(=O)(=O)C2COC2)CC1 [I-N-201]	+++ (Cisplatin sensitization value of <0.02 μM)
Nc1nn2cc(F)cnc2c1C(=O)Nc1cnccc1-n1ccnc1C1CC1 [I-N-202, 2-amino-N-(4-(2-cyclopropyl-1H-imidazol-1-yl)pyridin-3-yl)-6-fluoropyrazolo[1,5-a]pyrimidine-3-carboxamide]	+++ (Cisplatin sensitization value of <0.02 μM)
Nc1nn2cc(F)cnc2c1C(=O)Nc1cncc(F)c1N1CCN(C(=O)C2CC3CCCCN3C2)CC1 (stereo not shown) [I-N-203, 2-amino-6-fluoro-N-(5-fluoro-4-(4-(octahydroindolizine-2-carbonyl)piperazin-1-yl)pyridin-3-yl)pyrazolo[1,5-a]pyrimidine-3-carboxamide]	+++ (Cisplatin sensitization value of <0.02 μM)
CC(C)N1CCCC1C(=O)N1CCN(c2c(F)cncc2NC(=O)c2c(N)nn3cc(F)cnc23)CC1 (stereo not shown) [I-N-205, 2-amino-6-fluoro-N-(5-fluoro-4-(4-(1-isopropylpyrrolidine-2-carbonyl)piperazin-1-yl)pyridin-3-yl)pyrazolo[1,5-a]pyrimidine-3-carboxamide]	++ (Cisplatin sensitization value>0.02 μM but <0.2 μM)
CC(C)N1CCC(C(=O)N2CCN(c3c(F)cncc3NC(=O)c3c(N)nn4cc(F)cnc34)CC2)C1 (stereo not shown) [I-N-206, 2-amino-6-fluoro-N-(5-fluoro-4-(4-(1-isopropylpyrrolidine-3-carbonyl)piperazin-1-yl)pyridin-3-yl)pyrazolo[1,5-a]pyrimidine-3-carboxamide]	+++ (Cisplatin sensitization value of <0.02 μM)
COCCS(=O)(=O)C1CCN(c2ccncc2NC(=O)c2c(N)nn3cc(F)cnc23)CC1 [I-N-208, 2-amino-6-fluoro-N-(4-(4-((2-methoxyethyl)sulfonyl)piperidin-1-yl)pyridin-3-yl)pyrazolo[1,5-a]pyrimidine-3-carboxamide]	+++ (Cisplatin sensitization value of <0.02 μM)
CN1CCN(c2ccncc2NC(=O)c2c(N)nn3cc(F)cnc23)CC1=O [I-N-209, 2-amino-6-fluoro-N-(4-(4-methyl-3-oxopiperazin-1-yl)pyridin-3-yl)pyrazolo[1,5-a]pyrimidine-3-carboxamide]	+++ (Cisplatin sensitization value of <0.02 μM)
Nc1nn2cc(F)cnc2c1C(=O)Nc1cnccc1N1CCS(=O)(=O)CC1 [I-N-210, 2-amino-N-(4-(1,1-dioxidothiomorpholino)pyridin-3-yl)-6-fluoropyrazolo[1,5-a]pyrimidine-3-carboxamide]	+++ (Cisplatin sensitization value of <0.02 μM)
Nc1nn2cc(F)cnc2c1C(=O)Nc1cncc(F)c1N1CCN(C(=O)C2CCN(C3COC3)CC2)CC1 [I-N-211, 2-amino-6-fluoro-N-(5-fluoro-4-(4-(1-(oxetan-3-yl)piperidine-4-carbonyl)piperazin-1-yl)pyridin-3-yl)pyrazolo[1,5-a]pyrimidine-3-carboxamide]	++ (Cisplatin sensitization value>0.02 μM but <0.2 μM)
CN1CCN(c2c(F)cncc2NC(=O)c2c(N)nn3cc(F)cnc23)CC1=O [I-N-212, 2-amino-6-fluoro-N-(5-fluoro-4-(4-methyl-3-oxopiperazin-1-yl)pyridin-3-yl)pyrazolo[1,5-a]pyrimidine-3-carboxamide]	+++ (Cisplatin sensitization value of <0.02 μM)
Nc1nn2cc(F)cnc2c1C(=O)Nc1cncc(F)c1N1CCC(CN2CCCC2=O)CC1 [I-N-213, 2-amino-6-fluoro-N-(5-fluoro-4-(4-((2-oxopyrrolidin-1-yl)methyl)piperidin-1-yl)pyridin-3-yl)pyrazolo[1,5-a]pyrimidine-3-carboxamide]	+++ (Cisplatin sensitization value of <0.02 μM)
CN1CCCCC1C(=O)N1CCN(c2c(F)cncc2NC(=O)c2c(N)nn3cc(F)cnc23)CC1 (stereo not shown) [I-N-214, 2-amino-6-fluoro-N-(5-fluoro-4-(4-(1-methylpiperidine-2-carbonyl)piperazin-1-yl)pyridin-3-yl)pyrazolo[1,5-a]pyrimidine-3-carboxamide]	++ (Cisplatin sensitization value>0.02 μM but <0.2 μM)
CS(=O)(=O)CC1CCN(c2ccncc2NC(=O)c2c(N)nn3cc(F)cnc23)CC1 [I-N-215, 2-amino-6-fluoro-N-(4-(4-((methylsulfonyl)methyl)piperidin-1-yl)pyridin-3-yl)pyrazolo[1,5-a]pyrimidine-3-carboxamide]	+++ (Cisplatin sensitization value of <0.02 μM)
